Assay results as given in the CheMixHub ionic liquid set.
± gives the uncertainty stated by the source.

Assay: xn = mol fraction of the nth substance listed

CCCCCCCC[n+]1ccccc1.[Br-] + O
100 kPa
Details | electrical conductivity [S/m]
288.15 K, x1 = 0.0006303 | 0.31 ± 0.1
288.15 K, x1 = 0.001206 | 0.47 ± 0.1
288.15 K, x1 = 0.001745 | 0.62 ± 0.11
288.15 K, x1 = 0.002301 | 0.78 ± 0.11
288.15 K, x1 = 0.00309 | 0.98 ± 0.1
288.15 K, x1 = 0.003806 | 1.12 ± 0.094
288.15 K, x1 = 0.004431 | 1.22 ± 0.09
288.15 K, x1 = 0.005002 | 1.29 ± 0.088
288.15 K, x1 = 0.005537 | 1.35 ± 0.089
288.15 K, x1 = 0.006018 | 1.4 ± 0.091
288.15 K, x1 = 0.006445 | 1.44 ± 0.092
288.15 K, x1 = 0.006854 | 1.48 ± 0.094
288.15 K, x1 = 0.007227 | 1.51 ± 0.095
288.15 K, x1 = 0.007547 | 1.54 ± 0.097
293.15 K, x1 = 0.0006303 | 0.34 ± 0.12
293.15 K, x1 = 0.001206 | 0.54 ± 0.12
293.15 K, x1 = 0.001745 | 0.7 ± 0.12
293.15 K, x1 = 0.002301 | 0.88 ± 0.12
293.15 K, x1 = 0.00309 | 1.11 ± 0.11
293.15 K, x1 = 0.003788 | 1.27 ± 0.11
293.15 K, x1 = 0.004431 | 1.39 ± 0.1
293.15 K, x1 = 0.005002 | 1.47 ± 0.1
293.15 K, x1 = 0.00552 | 1.54 ± 0.1
293.15 K, x1 = 0.006 | 1.59 ± 0.1
293.15 K, x1 = 0.006445 | 1.65 ± 0.11
293.15 K, x1 = 0.006837 | 1.69 ± 0.11
293.15 K, x1 = 0.00721 | 1.73 ± 0.11
293.15 K, x1 = 0.007547 | 1.76 ± 0.11
298.15 K, x1 = 0.0006303 | 0.38 ± 0.13
298.15 K, x1 = 0.001206 | 0.6 ± 0.14
298.15 K, x1 = 0.001745 | 0.79 ± 0.14
298.15 K, x1 = 0.002301 | 0.99 ± 0.14
298.15 K, x1 = 0.00309 | 1.25 ± 0.13
298.15 K, x1 = 0.003788 | 1.43 ± 0.12
298.15 K, x1 = 0.004431 | 1.57 ± 0.12
298.15 K, x1 = 0.005002 | 1.67 ± 0.12
298.15 K, x1 = 0.00552 | 1.75 ± 0.12
298.15 K, x1 = 0.006 | 1.81 ± 0.12
298.15 K, x1 = 0.006428 | 1.87 ± 0.12
298.15 K, x1 = 0.006837 | 1.93 ± 0.13
298.15 K, x1 = 0.00721 | 1.98 ± 0.14
298.15 K, x1 = 0.007529 | 2.02 ± 0.13
303.15 K, x1 = 0.0006303 | 0.45 ± 0.15
303.15 K, x1 = 0.001206 | 0.67 ± 0.14
303.15 K, x1 = 0.001745 | 0.88 ± 0.15
303.15 K, x1 = 0.002301 | 1.1 ± 0.15
303.15 K, x1 = 0.00309 | 1.39 ± 0.15
303.15 K, x1 = 0.003788 | 1.6 ± 0.14
303.15 K, x1 = 0.004413 | 1.75 ± 0.13
303.15 K, x1 = 0.004985 | 1.87 ± 0.13
303.15 K, x1 = 0.005502 | 1.98 ± 0.14
303.15 K, x1 = 0.005983 | 2.07 ± 0.14
303.15 K, x1 = 0.006428 | 2.14 ± 0.14
303.15 K, x1 = 0.006819 | 2.21 ± 0.14
303.15 K, x1 = 0.007192 | 2.27 ± 0.15
303.15 K, x1 = 0.007529 | 2.32 ± 0.15
308.15 K, x1 = 0.0006303 | 0.48 ± 0.16
308.15 K, x1 = 0.001206 | 0.73 ± 0.17
308.15 K, x1 = 0.001745 | 0.97 ± 0.17
308.15 K, x1 = 0.002283 | 1.21 ± 0.17
308.15 K, x1 = 0.003072 | 1.54 ± 0.16
308.15 K, x1 = 0.00377 | 1.77 ± 0.16
308.15 K, x1 = 0.004413 | 1.98 ± 0.16
308.15 K, x1 = 0.004985 | 2.13 ± 0.15
308.15 K, x1 = 0.005502 | 2.23 ± 0.15
308.15 K, x1 = 0.005983 | 2.33 ± 0.16
308.15 K, x1 = 0.00641 | 2.42 ± 0.16
308.15 K, x1 = 0.006819 | 2.49 ± 0.16
308.15 K, x1 = 0.007192 | 2.56 ± 0.17
308.15 K, x1 = 0.007512 | 2.62 ± 0.17

C[P+](c1ccccc1)(c1ccccc1)c1ccccc1.[Br-] + CC(=O)O
Details | viscosity [mPa·s]
298.2 K, 101 kPa, x1 = 0.2 | 74.5 ± 2.5

CC[n+]1ccn(C)c1.N#C[S-] + [N-]=C=S.[NH4+]
100 kPa, x2 = 0
Details | electrical conductivity [S/m] | viscosity [mPa·s]
323.15 K | 4.38 ± 0.18 | 11.49 ± 0.54
348.15 K | – | 6.87 ± 0.32
353.15 K | – | 6.17 ± 0.29
